Test results: PMC5101293, “Acyclic nucleoside phosphonates containing the amide bond” (Monatshefte Fur Chemie, 2016)

Columns and labels:
L1210 cells = tested on: L1210 cells; design: method as in doi:10.1135/cccc19822806; conditions: cited from earlier work
[1] = tested on: human cervix carcinoma HeLa; assay: Cytostatic activity assay, HeLa; format: cell-based; conditions: HeLa cells, 72 h, read-out: IC50 (50% cytostatic inhibitory concentration, cell proliferation)
Protocol: (§1) The 50% cytostatic inhibitory concentration (IC50) causing a 50% decrease in cell proliferation was determined against murine leukemia L1210, human lymphocyte CEM, human cervix carcinoma HeLa, and human dermal microvascular endothelial cells (HMEC-1).
(§2) All assays were performed in 96-well microtiter plates. To each well were added (5–7.5) × 10^4 tumor cells and a given amount of the test compound. The cells were allowed to proliferate for 48 h (murine leukemia L1210 cells) or 72 h (human lymphocytic CEM and human cervix carcinoma HeLa cells) at 37 °C in a humidified CO2-controlled atmosphere. At the end of the incubation period, the cells were counted in a Coulter counter. The IC50 (50% inhibitory concentration) was defined as the concentration of the compound that inhibited cell proliferation by 50%.

murine leukemia L1210 = assay: Cytostatic activity assay, L1210; format: cell-based; conditions: Mus musculus; L1210 cells, 48 h; read-out: IC50 (50% cytostatic inhibitory concentration, cell proliferation)
Protocol: as §1, §2

CCOP(=O)(CCCNC(=O)Cn1ccc(=O)[nH]c1=O)OCC (hydrate or solvate)
melting point: 120 to 122 °C

CCOP(=O)(CCNC(=O)Cn1ccc(=O)[nH]c1=O)OCC
melting point: 138 to 140 °C

CCOP(=O)(CNC(=O)Cn1cc(Br)c(=O)[nH]c1=O)OCC
melting point: 211 to 213 °C

CCOP(=O)(CNC(=O)Cn1cc(F)c(=O)[nH]c1=O)OCC (hydrate or solvate)
melting point: 205 to 208 °C

CCOP(=O)(CNC(=O)Cn1cnc2c(=O)[nH]c(N)nc21)OCC (hydrate or solvate)
melting point: 165 °C (dec.)

CCOP(=O)(CCNC(=O)Cn1cc(F)c(=O)[nH]c1=O)OCC
melting point: 185 to 186 °C

CCOP(=O)(CNC(=O)Cn1c(=O)[nH]c(=O)c2ccccc21)OCC (hydrate or solvate)
melting point: 203 to 205 °C

CCOP(=O)(CNC(=O)Cn1cnc2c(Cl)nc(N)nc21)OCC (hydrate or solvate)
melting point: 130 to 132 °C

CCOP(=O)(CCNC(=O)Cn1cc(Br)c(=O)[nH]c1=O)OCC
melting point: 211 to 213 °C

CCOP(=O)(CCCNC(=O)Cn1ccc(NC(=O)OCc2ccccc2)nc1=O)OCC
melting point: 150 to 151 °C

O=C(Cn1cc(F)c(=O)[nH]c1=O)NC(CO)(CO)CO [18e]
concentration at which found active in vitro against L1210 cells (L1210 cells): 15 µM

CCOP(=O)(CCCNC(=O)Cn1cc(F)c(=O)[nH]c1=O)OCC (hydrate or solvate)
melting point: 143 to 144 °C

CCOP(=O)(CCCNC(=O)Cn1cnc2c(Cl)nc(N)nc21)OCC
melting point: 180 to 181 °C

CCOP(=O)(CCCNC(=O)Cn1cnc2c(=O)[nH]c(N)nc21)OCC (hydrate or solvate)
melting point: 155 °C (dec.)

CCOP(=O)(COCCNC(=O)Cn1cc(F)c(=O)[nH]c1=O)OCC [18d]
IC50 [1]: 194 ± 19 µM
melting point: 69 to 70 °C
IC50 (murine leukemia L1210): 89 ± 16 µM

CCOP(=O)(CNC(=O)Cn1ccc(NC(=O)OCc2ccccc2)nc1=O)OCC (hydrate or solvate)
melting point: 180 to 182 °C

CCOP(=O)(CCCNC(=O)Cn1cc(C)c(=O)[nH]c1=O)OCC (hydrate or solvate)
melting point: 183 to 184 °C

CCOP(=O)(CCNC(=O)Cn1cnc2c(=O)[nH]c(N)nc21)OCC (hydrate or solvate)
melting point: 175 °C (dec.)

CCOP(=O)(CCCNC(=O)Cn1cc(Br)c(=O)[nH]c1=O)OCC
melting point: 164 to 166 °C

CCOP(=O)(CNC(=O)Cn1cc(C)c(=O)[nH]c1=O)OCC
melting point: 211.5 to 212.5 °C

CCOP(=O)(CCNC(=O)Cn1cnc2c(Cl)nc(N)nc21)OCC
melting point: 158 to 160 °C

CCOP(=O)(CCCNC(=O)Cn1c(=O)[nH]c(=O)c2ccccc21)OCC
melting point: 168 to 169 °C

CCOP(=O)(CNC(=O)Cn1cnc2c(N(C(=O)OC(C)(C)C)C(=O)OC(C)(C)C)ncnc21)OCC
melting point: 128 to 130 °C

CCOP(=O)(CCNC(=O)Cn1ccc(NC(=O)OCc2ccccc2)nc1=O)OCC
melting point: 127 to 128 °C

CCOP(=O)(CCNC(=O)Cn1c(=O)[nH]c(=O)c2ccccc21)OCC
melting point: 180 to 182 °C

CCOP(=O)(CNC(=O)Cn1ccc(=O)[nH]c1=O)OCC
melting point: 215 to 217 °C

CCOP(=O)(CCNC(=O)Cn1cc(C)c(=O)[nH]c1=O)OCC
melting point: 196 to 197 °C
